From US20050148034A1, “Methods for identification of modulators of angiogenesis, compounds discovered thereby, and methods of treatment using the compounds” (priority 2002, published 2005)

How the values were obtained:
[1] = tested on: umbilical vessel explant / cultured cells; experiment: Umbilical vessel ring assays, photomicrographs of cultured cells (FIGS. 1-3); type: cell-based, human
Protocol: FIGS. 1(A-D). Photomicrographs of cultured cells in umbilical vessel ring assays as described in Section 6.2. A. Positive control. The explant was cultured in media+EGCF 200 μg/ml. […] B. Negative control. The explant was cultured in placental conditioned media+supplement. In the absence of EGCF, fewer cells migrated from the explant than in the positive control (A). C. Treatment Group 3. The explant was cultured in placental conditioned media+EGCF 200 μg/ml+Thalomid™ 100 μg/ml. […] D. Treatment Group 2. The explant was cultured in placental conditioned media+EGCF 200 μg/ml+Thalomid™ 10 μg/ml.
FIGS. 2(A-C). Photomicrographs of cultured cells in umbilical vessel ring assays as described in Section 6.2. A. Control. Cells were cultured in placental conditioned media+ECGF 200 μg/ml+DMSO 1 μg/ml. B. Cells were cultured in placental conditioned media+ECGF 200 μg/ml+DMSO 1 μg/ml+Thalomid™ 1 μg/ml. […]. Cells were cultured in placental conditioned media+ECGF 200 μg/ml+DMSO 1 μg/ml+Thalomid™ 10 μg/ml.
FIGS. 3(A-B). Photomicrographs of cultured cells in umbilical vessel ring assays as described in Section 6. A. Control. Cells were cultured in placental conditioned media+DMSO. […] B. Cells were cultured in placental conditioned media+DMSO+Thalomid™.
(§1) Embryonic-like stem cells were isolated from placenta as described above in Section 5.4. The embryonic-like stem cells were cultured using the culture conditions described above.

[2] = tested on: embryonic-like stem cells derived from placenta; experiment: Marker expression of cultured embryonic-like stem cells (staining score, Table 2); type: cell-based, human; design: key to SMC-specific Myosin HC / GFAP / CD34+ / CD45+: −: no staining; +/−: <20% staining; +: 20-50% staining; ++: 50-75% staining; +++: >75% staining; settings: for CD34+ / CD45+ / GFAP / Nestin / SMC-specific Myosin HC: placental conditioned media, fourteen days of culture
Protocol: The following experiments evaluated the effects of Thalomid™, Actimid™ and Revimid™ on the morphological differentiation of embryonic-like stem cells derived from placenta. The morphological differentiation of cultured embryonic-like stem cells was evaluated after fourteen days of culture in the presence of placental conditioned medium and with DMSO (control), EGCF, Thalomid™, Actimid™ or Revimid™.
as §1
(§2) The cells were scored for the expression of CD34 (a marker of early hematopoietic progenitor cells; also an endothelial cell marker), CD45 (a marker of all hematopoietic cells except erythrocytes), CD105 (a marker of proliferating endothelial cells), smooth muscle cell (SMC)-specific myosin heavy chain, nestin ([…]), and glial fibrillary acidic protein (GFAP). Ratios of CD34 cells/TNC (Total Number of Cells), CD45 cells/TNC and CD105 cells/TNC were also determined.
In Table 2, the scoring was as follows: • −: no staining; +/−: <20% staining+: 20-50% staining; ++: 50-75% staining; +++: >75% staining.

[3] = tested on: embryonic-like stem cells derived from placenta; experiment: Immunostaining for CD34, CD45 and CD105 in cultured placental stem cells (ratios to TNC, Table 3); type: cell-based, human; settings: for CD34/TNC / CD45/TNC / CD105/TNC: placental conditioned media, 14 days in culture
Protocol: as §2
In another experiment, the results of which are summarized in Table 3, embryonic-like stem cells derived from placenta were cultured, using the conditions described in the umbilical vessel ring assay described above, in the presence of placenta-conditioned medium with DMSO (negative control), Thalomid™, Actimid™ or Revimid™. After 14 days in culture, the cells were then immunostained for expression of CD34+, CD45+ and CD 105+.

[4] = tested on: embryonic-like stem cells derived from placenta; experiment: Total vessel area/field and branching/bifurcation of cultured placental embryonic-like stem cells (Table 4); type: cell-based, human; design: key to Branching/Bifurcation (+/−): +: a branch or bifurcation was observed; −: no branch or bifurcation was observed
Protocol: In another experiment, the results of which are summarized in Table 4, embryonic-like stem cells derived from placenta were cultured, using the culture conditions described above, and in the presence of EGCF, DMSO, Thalomid™, Actimid™ or Revimid™.
A “+” means that a branch or bifurcation was observed and a “−” means that no branch or bifurcation was observed. […] See also FIGS. 3A, 3B

rat aortic rings = experiment: Rat aortic angiogenesis assay; type: cell-based, Sprague Dawley rats
Protocol: Twelve well tissue culture grade plates were covered with 250 μl of Matrigel and allowed to gel for 30-45 min at 370 C, 5% Co2. Thoracic aortas were excised from eight to ten week old male Sprague Dawley rats and the fibroadipose tissue was removed. The aortas were sectioned into 1 mm long sections, rinsed eight times with EGM-2 (Clonetics Corp), placed on the Matrigel coated wells, covered with additional 250 μl Matrigel, and allowed to gel for 30-45 min at 370 C. The rings were cultured for 24 hours in 2 ml of EGM-2. After 24 hours, recombinant murine endostatin was reconstituted in EBM and added as a single treatment on day 1. Thalidomide was added at different concentrations (1 μg/ml, 5 μg/ml, 10 μg/ml, 50 μg/ml and 100 μg/ml) in the presence or absence of rabbit microsomes as noted in the Table 5. Aortic rings were photographed on days.

O=C1CCC(N2C(=O)c3ccccc3C2=O)C(=O)N1 (centres unmarked) [Thalomid, thalidomide, reference compound]
cell phenotype (branching / non-branching) ([1]; placental conditioned media + DMSO (FIG. 3)): More cells exhibit a branching (e.g., neuronal) phenotype than in the control
number of cells seen ([1]; placental conditioned media + ECGF 200 μg/ml + DMSO 1 μg/ml + 1 μg/ml (FIG. 2)): Fewer cells are seen than in the control
number of cells seen ([1]; placental conditioned media + ECGF 200 μg/ml + DMSO 1 μg/ml + 10 μg/ml (FIG. 2)): Fewer cells are seen than in the control (A) or in (B)
cell migration from the explant and outgrowth ([1]; placental conditioned media + EGCF 200 μg/ml + 10 μg/ml (FIG. 1D)): cells migrated a shorter distance from the explant and they exhibited less dense outgrowth than in the positive control
cell migration from the explant ([1]; placental conditioned media + EGCF 200 μg/ml + 100 μg/ml (FIG. 1C)): cells migrated a shorter distance from the explant than in the positive control
CD34+ ([2]; 10 μg/mL): +/− (<20% staining)
CD45+ ([2]; 10 μg/mL): + (20-50% staining)
GFAP ([2]; 10 μg/mL): −
Nestin ([2]; 10 μg/mL): + (20-50% staining)
SMC-specific Myosin HC ([2]; 10 μg/mL): −
CD34+ ([2]; 100 μg/mL): −
CD45+ ([2]; 100 μg/mL): + (20-50% staining)
GFAP ([2]; 100 μg/mL): + (20-50% staining)
Nestin ([2]; 100 μg/mL): + (20-50% staining)
SMC-specific Myosin HC ([2]; 100 μg/mL): −
numbers of cells expressing CD34, CD45 and smooth muscle cell (SMC)-specific myosin heavy chain ([2]; summary of Table 2): decreased
numbers of cells expressing nestin and glial fibrillary acidic protein (GFAP) ([2]; summary of Table 2): increased
CD34/TNC ([3]; 10 μg/ml): 0.64
CD45/TNC ([3]; 10 μg/ml): 3.87
CD105/TNC ([3]; 10 μg/ml): 6.8
CD34/TNC ([3]; 100 μg/ml): 0.38
CD45/TNC ([3]; 100 μg/ml): 4.21
CD105/TNC ([3]; 100 μg/ml): 7.0
numbers of cells expressing CD34, CD45 and CD 105 ([3]; summary of Table 3): decrease
Branching/Bifurcation (+/−) ([4]; 1 μg/ml): −
Total Vessel Area/Field (% Coverage) ([4]; 1 μg/ml): 24.1 +/− 4.4 % Coverage
Branching/Bifurcation (+/−) ([4]; 10 μg/ml): −
Total Vessel Area/Field (% Coverage) ([4]; 10 μg/ml): 14.8 +/− 7.2 % Coverage
branching and/or bifurcation exhibited by the cells ([4]; summary of Table 4): decreases the branching and/or bifurcation exhibited by the cells
total vessel area/field covered by the cells ([4]; summary of Table 4): decrease in the total vessel area/field covered by the cells
mean microvessel growth (% of control) (rat aortic rings; 10 μg/ml, + Rabbit microsomes): 16.6 % of control
mean microvessel growth (% of control) (rat aortic rings; 10 μg/ml, without microsomes): 60 % of control
mean microvessel growth (% of control) (rat aortic rings; 50 μg/ml, + Rabbit microsomes): 17.6 % of control
mean microvessel growth (% of control) (rat aortic rings; 50 μg/ml, without microsomes): 82 % of control
need of rabbit microsomes for inhibition of vessel formation (rat aortic rings; summary of Table 5): requires the addition of rabbit microsome in order to show efficient inhibition of vessel formation
